One assay concerns Haemonchus contortus. As to the kind of experiment: Agonist activity at Heaemonchus contortus UNC-49B/C GABAA receptor expressed in Xenopus laevis oocytes at 500 uM by two-electrode voltage-clamp method. In kind it is cell-based. For orientation: In two-electrode clamp one electrode senses voltage and the other passes current.
A short description of assay [1]: Agonist activity at Heaemonchus contortus UNC-49B/C GABAA receptor expressed in Xenopus laevis oocytes by two-electrode voltage-clamp method. Format: cell-based. As to conditions: Haemonchus contortus.

Active and inactive are the calls of the source. The rule behind the calls is not given here.

For `NCC(Cl)CC(=O)O` (stereo not drawn), the outcome with Haemonchus contortus was inactive. Regarding `NCC(Br)CC(=O)O` (stereo not drawn), the outcome in the assay with Haemonchus contortus was inactive.

Usually EC50 stands for the concentration needed to bring the measured effect to its halfway point. A low value points to a more potent agent. `NC/C=C/C(=O)O` [t-4-AMINOCROTONIC ACID (TACA)] had an EC50 in assay [1] of 290 µM.

The values above are taken from ChEMBL document CHEMBL4043196, “Efficient synthesis of the GABAA receptor agonist trans-4-aminocrotonic acid (TACA)” (Bioorg Med Chem Lett, 2017).
